Measurements: patent publication US9409880B2, “Modulators of TLR3/dsRNA complex and uses thereof” (The Regents of the University of Colorado, a body corporate, priority 2011, dated 2016)

What was measured:
[1] = system: poly IC-induced impaired re-endothelialization; assay: Vascular repair: re-endothelialization after carotid artery denudation; type: in vivo, Mice; settings: 27 μg i.p. every 48 hours; 100 μg poly IC i.v.; Evan's blue staining
Protocol: Mice were subjected to a 4 mm long electric denudation of the left common carotid artery. These C57B1/6J littermates were then treated with 100 μg of poly IC or vehicle (NaCl 0.9%) via i.v. injection every 48 hours for five days. Half of the mice in each group were also treated with 27 μg compound 4a or vehicle (DMSO) via i.p. injection every 48 hours. The mice were then sacrificed and aortic arch including both common carotid arteries excised. The remaining endothelial lesion was visualized using Evan's blue staining.

MCP-1 = assay: In vivo poly IC-induced serum MCP-1 in wild-type mice; settings: pretreatment 30 minutes prior to 100 μg poly IC i.v., serum 4 hours after
Protocol: Wild-type mice were treated with a single 100 μg of poly IC i.v. injection and the serum concentration of MCP-1 was investigated 4 hours after the treatment. […] Pretreatment with compound 4a at various concentrations 30 minutes prior to poly I:C application decreased MCP-1 production by about 50%.

RAW 264.7 cells = assay: WST-1 cytotoxicity assay; type: cell-based, Mouse; settings: WST-1 methodology; different concentrations
Protocol: This assay was conducted in a 96-well plate with 5,000 cells in 100 μL media (RPMI 1640 medium, supplemented with 10% FBS, penicillin (100 U/mL) and streptomycin ([…])) per well. Eight wells were left empty for blank controls. The plates were incubated (37° C., 5% CO2) overnight to allow the cells to attach to the wells. WST-1 proliferation reagent (Roche) was added to the cells (10 μL per well) and continued to incubate for 1-2 h at 37° C. Plates were checked visually by comparing the colour of wells with media without cells (colour remained pink) with wells contained untreated cells (colour is orange). When a clear difference could be seen by naked eye, results were read by spectrophotometer at 490 nm. Cytotoxicity (%) was determined using the following formula: Cytotoxicity (%)=(1−[Compounds (OD490)−Background (OD490)]/[Control (OD490)−Background (OD490)])×100.

TLR3 = target: T1, TLR3 (Homo sapiens, UniProt O15455); assay: Fluorescence anisotropy assay, competition with Rhodamine labeled Poly IC; type: binding
T1 construct: purchased R &D
T1 sequence (O15455 24-904): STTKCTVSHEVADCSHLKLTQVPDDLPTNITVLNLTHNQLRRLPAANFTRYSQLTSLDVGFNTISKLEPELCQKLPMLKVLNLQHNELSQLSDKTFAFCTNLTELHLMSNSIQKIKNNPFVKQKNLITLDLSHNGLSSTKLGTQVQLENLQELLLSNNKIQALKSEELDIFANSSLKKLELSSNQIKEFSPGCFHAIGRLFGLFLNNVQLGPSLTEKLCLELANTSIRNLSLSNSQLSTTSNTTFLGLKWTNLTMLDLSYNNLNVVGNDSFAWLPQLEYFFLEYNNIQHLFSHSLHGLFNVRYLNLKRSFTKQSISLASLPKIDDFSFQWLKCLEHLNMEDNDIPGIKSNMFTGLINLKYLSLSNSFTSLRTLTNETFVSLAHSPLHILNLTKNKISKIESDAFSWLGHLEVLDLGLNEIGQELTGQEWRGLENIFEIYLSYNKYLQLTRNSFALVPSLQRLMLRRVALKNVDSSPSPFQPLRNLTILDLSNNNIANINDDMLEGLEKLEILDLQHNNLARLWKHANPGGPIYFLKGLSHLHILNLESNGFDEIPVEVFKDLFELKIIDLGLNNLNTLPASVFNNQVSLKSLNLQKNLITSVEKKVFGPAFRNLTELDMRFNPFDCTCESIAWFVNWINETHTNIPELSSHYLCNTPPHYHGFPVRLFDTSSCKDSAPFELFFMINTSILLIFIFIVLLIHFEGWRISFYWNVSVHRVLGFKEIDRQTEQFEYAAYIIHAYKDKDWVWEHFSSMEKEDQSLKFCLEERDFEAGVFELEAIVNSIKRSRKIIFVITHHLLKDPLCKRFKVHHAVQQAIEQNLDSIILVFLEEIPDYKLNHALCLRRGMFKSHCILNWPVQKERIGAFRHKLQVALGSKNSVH
Protocol: The anisotropy of Rhodamine labeled Poly IC increased from approximately 0.116 to 0.171 upon addition of TLR3 (excitation=546 nm; emission=576 nm).
In 500 μL Tris buffer (pH=7.2) add 5 μL (1 μg/mL) Rhodamine labeled Poly IC (Invivogen), test the anisotropy at excitation of 546 nm and emission of 576 nm (Horiba Fluorolog 3). An addition 3 μL (20 μM) of TLR3 (R &D) was added in the buffer, then test the anisotropy again. Following, 4a was added in the buffer from 0 to 68 μM, and the fluorescence anisotropy was tested when the concentration was changed.

`O=C(N[C@H](Cc1ccccc1)C(=O)O)c1sc2cc(F)ccc2c1Cl` [Compound 4a, (R)-2-(3-chloro-6-fluorobenzo[b]thiophene-2-carboxamido)-3-phenylpropanoic acid] was tested, and the “poly IC-induced impaired re-endothelialization” value [1] was “significantly improves poly IC-induced impaired re-endothelialization”, the “decrease of MCP-1 production” value (MCP-1) was “about 50%” and the “toxicity in RAW 264.7 cells” value (RAW 264.7 cells) was “did not show any significant toxicity”. The “TLR3 binding competition with dsRNA” value (TLR3) was “competes with dsRNA in binding to TLR3”, the Ki (TLR3; competes with dsRNA for binding to TLR3) was 2960 ± 320 nM and the “anisotropy of Rhodamine labeled Poly IC” value (TLR3; compound concentration increased to 68 μM) was “decreased the anisotropy to background levels”.
